Experiments:
[1] = test system: hsp-16.2p::GFP; experiment: hsp-16.2p::GFP reporter induction (cytosolic HSR / MCSR); format: in vivo, C. elegans; conditions: for hsp-6 RNAi-induced MCSR (hsp-16.2p::GFP): ceramide fed worms, 100μg/ml, 48 hours, on hsp-6 RNAi
Method: (§1) Bacterial feeding of RNAi experiments was conducted during adulthood to exclude target genes' function during developmental stages. Synchronized eggs were harvested by bleaching and nematodes were grown on plates with E. coli OP50 until they reached early adulthood before they were transferred to RNAi plates. Day 1 adult worms were then grown on the RNAi plates with E. coli HT115 that carried the RNAi construct for 3 days at 20° C. Worms were imaged using a fluorescent microscope for green fluorescent protein (GFP) induction or applied to COPAS Biosorter (Union Biometrica) to quantify the level of GFP induction. The temperature-sensitive sterile strains were grown at 15° C. until they were gravid adults. Then, the cohorts were shifted to 25° C. Day 1 adult worms were transferred to RNAi plates for 2 days before images were taken. For the double RNAi treatment, E. coli carrying the indicated RNAi constructs are mixed 1:1 ratio.
(§2) Lipids, Inc. Lyophilized lipids were dissolved in Methanol with sonication. Ceramides were diluted to 100μg/ml and spotted on top of the OP50 plates or RNAi plates. Worms were transferred to Ceramide-spotted plates at L4 stage and the images were taken after 48 hours. Cardiolipin was fed to bacteria for 2-4 hours (OP50 or RNAi construct-carrying HT115) with final concentration of 100μg/ml. Then the bacteria were spotted on plates before transferring the worms. L4 worms were then transferred to the cardiolipin spotted plates and images were taken after 48 hours.
Worms were grown up to day 1 adults and underwent heat shock at 34° C. for 2 hours, then recovered at 20° C. for overnight before taking images. For the Nile Red Staining experiment, worms were recovered for 48 hours.
(§3) Perhexiline (Sigma) powder was dissolved in dimethylsulfoxide (DMSO) (100 mM). The stock was diluted to 1 mM and 100 μl was spotted on the E. coli OP50 plates or HT115 RNAi plates and dried before transferring the worms. Worms were transferred to new perhexiline plates every other day for three to four days until harvested for following experiment. […]

[2] = test system: hsp-6p::GFP; experiment: hsp-6p::GFP / hsp-60p::GFP reporter induction (UPRmt); format: in vivo, C. elegans; conditions: for UPRmt caused by cco-1 knockdown: ceramide fed reporter worms
Method: as §1, §2
(§4) Perhexiline (Sigma) powder was dissolved in dimethylsulfoxide (DMSO) (100 mM). The stock was diluted to 1 mM and 100 μl was spotted on the E. coli OP50 plates or HT115 RNAi plates and dried before transferring the worms. Worms were transferred to new perhexiline plates every other day for three to four days until harvested for following experiment. For the perhexiline treatment with multiple numbers of RNAi (e.g., FIG. 4C), worms were transferred to the S-media containing HT115 RNAi bacteria, 100 μM of perhexiline and 1 mM of IPTG in a 96-well plate for 48 hrs.

[3] = test system: aggregated PolyQ proteins (Q35::YFP); experiment: Filter trap assay of aggregated PolyQ proteins in worms; format: in vivo, C. elegans; conditions: AM140 worms
Method: (§5) 100μg of protein samples were applied on to cellulose acetate membrane with 0.22 μm pore size (Schlechtes+Schule), assembled in vacuum slot blotter (Bio-Dot, Bio-Rad). Membrane was washed with 0.2% SDS five times on the blotter and subjected to antibody incubation for detecting aggregated protein retained on the membrane. Briefly, membrane was incubated with anti-GFP antibody (1:3000 dilution in 5% milk in PBS, Roche) overnight in a cold room. Membrane was washed with PBST (PBST with 0.05% Tween-20) for three times, then incubated with secondary antibody (donkey anti-mouse antibody conjugated with HRP, 1:5000 dilution in 5% milk in PBS, Jackson Immuno Research). Membranes were washed with PBST three times and exposed to film after applying ECL solutions (Pierce) to visualize the protein bands.
as §4

[4] = test system: polyglutamine repeats in Huntingtin exon 1 (Q78); experiment: Filter trap assay of polyQ aggregates in human primary fibroblasts; format: cell-based; conditions: perhexiline 400 nM, 48 hours
Method: The following siRNAs were tested for depleting the indicated genes in the human primary fibroblasts or HEK cells: hspa9 siRNA (#1 and #2), accl siRNA (#1 and #2), fas siRNA (#1 and #2) (Ambion). Scrambled siRNA with no known mammalian homology (non-targeting siRNA #1 (Ambion) was used as negative control. Double siRNA treatment was performed by mixing two different siRNAs indicated at 1:1 ratio. Cells were transfected with the siRNAs using JetPrime according to the manufacturer's manual and then harvested after 48 h. Control vector-transfected cells were used as controls for all the experiments.
as §5, with “Membranes were washed with PBST three times and exposed to film after applying ECL solutions (Pierce) to visualize the protein bands.” left out

[5] = test system: C. elegans; experiment: Oxygen consumption rate of whole worms (Seahorse); format: in vivo; conditions: perhexiline treatment of hsp-6 RNAi animals
Method: Oxygen consumption of whole worms was measured using the Seahorse XF96 (Seahorse Bioscience). Worms were washed off from plates with M9 to remove residual bacteria. Then, 50 worms (10 worms/well/100 μl) were transferred to the microplate. 50 μl of M9 was added to the wells and the oxygen consumption rate was measured. All experiments were repeated at least three times.

[6] = test system: cytosolic HSP70; experiment: Western blotting of cytosolic HSP70 in human primary fibroblasts; format: cell-based; conditions: human primary fibroblasts (GFP expressing cells)
Method: The following siRNAs were tested for depleting the indicated genes in the human primary fibroblasts or HEK cells: hspa9 siRNA (#1 and #2), accl siRNA (#1 and #2), fas siRNA (#1 and #2) (Ambion). Scrambled siRNA with no known mammalian homology (non-targeting siRNA #1 (Ambion) was used as negative control. Double siRNA treatment was performed by mixing two different siRNAs indicated at 1:1 ratio. Cells were transfected with the siRNAs using JetPrime according to the manufacturer's manual and then harvested after 48 h. Control vector-transfected cells were used as controls for all the experiments. For SDS-PAGE, 20-40μg of protein samples were loaded on 4-12% bis-tris SDS gel (Invitrogen). The gel was transferred to nitrocellulose membrane (GE) using XCell II blot module (Invitrogen). Then, membranes were incubated with antibodies and exposed to film as described above. mtHSP70 (Abcam), α-Tubulin (Sigma), GFP (Roche), and cytosolic HSP70 (HSP70/HSP72, Enzo life) were used to probe the membrane. The western blot bands' intensity was measured using ImageJ software. For the cell culture experiments, cells were grown to 90% confluent and washed with PBS. Indicated concentrations of perhexiline were diluted in the cell growth media with serum and replaced in cell culture dishes. After 48 hours, cells were washed with PBS and harvested for following experiments.

[7] = test system: C. elegans; experiment: Triglyceride quantification in worms; format: in vivo; conditions: perhexiline treated worms
Method: (§6) To quantify triglyceride content, a Triglyceride quantification kit (Bio Vision) was used according to the manufacturer's protocol. Briefly, worms were harvested from plates and washed with M9 three times. Worms were homogenized with 5% NP-40 in water using a glass dounce homogenizer to extract mostly the intestinal tissues by checking the lysates under a dissecting microscope. Worms looked like empty shells once the intestinal tissues were extracted out. The samples were heated slowly at 90° C. for 5 minutes and cooled down to room temperature. Heating was repeated once more prior to centrifugation of the samples for 2 minutes to bring down debris. Supernatant was removed and mixed with enzymes provided in the kit according to the manufacturer's manual. Measurement was done using microplate reader M1000 (TECAN) at Ex/Em=535/590 nm. Calculations were done after subtracting 0 standard readings as a background.
Sample Triglyceride control (C)=B/V×D nmol/μl or mM
as §3

[8] = test system: human primary fibroblasts; experiment: Triglyceride content of human primary fibroblasts; format: cell-based; conditions: human primary fibroblasts (GFP expressing cells) after perhexiline treatment
Method: as §6
For the mammalian cell culture samples, cells were washed with cold PBS and homogenized with 5% NP-40 in water using a syringe with 22 G needle, followed by the procedure shown above. All experiments were done with three biological repeats.
For the cell culture experiments, cells were grown to 90% confluent and washed with PBS. Indicated concentrations of perhexiline were diluted in the cell growth media with serum and replaced in cell culture dishes. […]

| SMILES | hsp-6 RNAi-induced MCSR (hsp-16.2p::GFP) [1] | UPRmt caused by cco-1 knockdown [2] | levels of aggregated PolyQ proteins [3] | polyglutamine protein aggregation [4] | overall oxygen consumption rate [5] | expression of cytosolic HSP70 [6] | fat accumulation (triglyceride content) [7] | cytosolic hsp-16.2 expression ([1]; perhexiline treated hsp-16.2p::GFP;CF512 reporter worms) | induction of UPRmt (hsp-6p::GFP, hsp-60p::GFP) ([2]; perhexiline treated reporter worms) | triglyceride levels [8] |
| --- | --- | --- | --- | --- | --- | --- | --- | --- | --- | --- |
| CCCCCCCCCCCCC/C=C/[C@@H](O)[C@H](CO)NC(=O)CCCCCCCCCCCCCCCCCCC [C20 ceramide] | partially block | did not affect |  |  |  |  |  |  |  |  |
| CCCCCCCCCCCCC/C=C/[C@@H](O)[C@H](CO)NC(=O)CCCCCCCCCCCCCCCCCCCCC [C22 ceramide] | completely inhibited | did not affect |  |  |  |  |  |  |  |  |
| C1CCC(C(CC2CCCCN2)C2CCCCC2)CC1 (stereo not drawn) [perhexiline, 2-(2,2-dicyclohexylethyl)piperidine] |  |  | decreased levels | reduced | did not further reduce | induce expression | increased | specifically induced | moderately induced | increased |
